Test results published in patent US6420120B1, “Use of a polypeptide as cell receptor for adenoviruses” (priority 1997, dated 2002).

Experiments:
Assay in all cases: Bifunctional ligand: Ad5Luc3 attachment to peptide-pretreated cells, luciferase activity
Settings in all cases: 500 μM peptide, 1 h at 0-4° C. before Ad5Luc3
NIH-3T3 cells = assay type: cell-based, murine
Protocol: (§1) The human cells (HeLa) or murine cells (Swiss-3T3 or NIH-3T3, ATCC CRL-1658) are rinsed and incubated between 0 and 4° C. with an isotonic solution (PBS) containing 500 μM of peptide. After 1 h, the solution is removed and replaced with the viral inoculum (Ad5Luc3) according to a protocol already described (see above or Hong et al., 1997, EMBO J. 16, 2294-2306). The virus is incubated for 1 hour between 0 and 4° C. to allow its attachment, and then the excess nonadsorbed virus is rinsed with culture medium precooled to 4° C. and the cells are again placed at 37° C. in the presence of culture medium preheated to 37° C. The virus is endocytosed at 37° C. and the viral cycle then lasts for 18 to 20 h at 37° C.

Swiss-3T3 cells = assay type: cell-based, murine
Protocol: as §1

HeLa cells = assay type: cell-based, human
Protocol: as §1

Substance | increase in the luciferase activity (number of adsorbed viruses) versus no peptide (NIH-3T3 cells) | increase in the luciferase activity (number of adsorbed viruses) versus no peptide (Swiss-3T3 cells) | increase in the luciferase activity (number of adsorbed viruses) versus no peptide (HeLa cells)
GRP-MH20: bifunctional peptide with reverse orientation, GRP at N-terminus and MH20 at C-terminus, SEQ ID No: 23 (KMYPRGNHWAVGHLMRAIVGFRVQWLRRYFVNGSR; listed as Homo sapiens) | eight to ten times | two to three times | five to six times
MH20-GRP: bifunctional peptide, MH20 at N-terminus fused to GRP (Gastrin Releasing Peptide), SEQ ID No: 22 (RAIVGFRVQWLRRYFVNGSRKMYPRGNHWAVGHLM; listed as Homo sapiens) | identical slope | identical slope | identical slope
